Results published in US9725457B2, “6-amido derivatives of 4, 5-a epoxymorphinans for the treatment of pain” (Sloan-Kettering Institute for Cancer Research, priority 2010, dated 2017).
Read-outs that look alike come from different tables or passages of the source.

Assays:
[1] = system: mice; test: Radiant heat tail flick analgesia assay; assay type: in vivo; details: Mus musculus; male CD-i mice, radiant heat tail-flick
Experimental: Tail Flick Analgesia Assays: Male CD-i mice (25-35 g; Charles River Breeding Laboratories, Wilmington, Mass.) were maintained on a 12-hr light/dark cycle with Purina rodent chow and water available ad libitum. Mice were housed in groups of five until testing. Analgesia was determined using the radiant heat tail-flick technique [D'Amour and Smith, J. Pharmacol. Exp. Ther. 72: 74-79 (1941)]. For the tail-flick assay, the latency to withdraw the tail from a focused light stimulus was measured electronically using a photocell. […] Post-treatment tail-flick latencies were determined as indicated for each experiment, and a maximal latency of 10 sec for tail-flick was used to minimize tissue damage. All experiments were replicated at least twice with each group in each experiment containing at least 10 mice and the combined results of all replications presented.

[2] = target: T1, KOR (kappa opioid receptor), KOR1-CHO (Mus musculus, UniProt P33534); test: Competition binding in KOR-CHO, 125I-SMGP1 radioligand
T1 construct: expressed in transfected cells; host or cells: CHO
Experimental: (§1) Receptor-Binding Assays: Competition-binding assays in MOR-CHO (mu), DOR-CHO (delta) and KOR-CHO (kappa) were performed at 25° C. in 50 mM potassium phosphate buffer, pH 7.4, containing 5 mM magnesium sulfate (only in the case of CHO-MOR). Specific binding was defined as the difference between total binding and nonspecific binding, determined in the presence of 8 μM levallorphan. 125I-SMGP1 (IBNtxA) was used as the universal radioligand to determine the relative affinity of drugs in MOR1-CHO, KOR1-CHO and DOR1-CHO. Protein concentrations were generally 20-40 μg/mL, incubation times were 90 minutes for all assays. (Majumdar et al., Bioorg Med Chem Lett. 2011, 21(13), 4001-4004). Kappa3 opioid receptor competition binding assays were carried out in whole brain membrane homogenates, performed at 25° C. in 50 mM potassium phosphate buffer, pH 7.4, containing 5 mM magnesium sulfate for 90 minutes in presence of 100 nM CTAP, 100 nM U50488h and 100 nM DPDPE. ^125I-SMGP1 was used as the radioligand in the assays, typically 500 micrograms of protein and 0.15 nM of the radioligand was used in a 0.5 mL assay. Specific binding was defined as the difference between total binding and nonspecific binding, determined in the presence of 8 μM levallorphan. Protein concentration was determined as described by Lowry et al. [J Biol Chem 1951, 193, 265-275; (1951)] using bovine serum albumin as the standard. Kd, Bmax, and Ki values were calculated by nonlinear regression analysis (GraphPadPrism). […] The “kappa3 opioid receptor” as referred to herein is the receptor first characterized by Clark et al. [J. Pharmacol. Exp. Ther. 251, 461-468 (1989)].

[3] = target: T2, MOR (mu opioid receptor), MOR1-CHO (Mus musculus, UniProt P42866); test: Competition binding in MOR-CHO, 125I-SMGP1 radioligand
T2 construct: expressed in transfected cells; host or cells: CHO
Experimental: as §1

[4] = target: T3, DOR (delta opioid receptor), DOR1-CHO (Mus musculus, UniProt P32300); test: Competition binding in DOR-CHO, 125I-SMGP1 radioligand
T3 construct: expressed in transfected cells; host or cells: CHO
Experimental: Receptor-Binding Assays: Competition-binding assays in MOR-CHO (mu), DOR-CHO (delta) and KOR-CHO (kappa) were performed at 25° C. in 50 mM potassium phosphate buffer, pH 7.4, containing 5 mM magnesium sulfate (only in the case of CHO-MOR). Specific binding was defined as the difference between total binding and nonspecific binding, determined in the presence of 8 μM levallorphan. […] Protein concentrations were generally 20-40 μg/mL, incubation times were 90 minutes for all assays. […] Specific binding was defined as the difference between total binding and nonspecific binding, determined in the presence of 8 μM levallorphan. […] Kd, Bmax, and Ki values were calculated by nonlinear regression analysis (GraphPadPrism).

[5] = KOR-CHO, 125I-SMGP1, 25° C., 90 minutes, read-out: Ki (nM) KOR
[6] = MOR-CHO, 125I-SMGP1, 25° C., 90 minutes, read-out: Ki (nM) MOR
[7] = DOR-CHO, 125I-SMGP1, 25° C., 90 minutes, read-out: Ki (nM) DOR

With `CN1CCC23c4c5ccc(O)c4OC2C(NC(=O)c2cccc(I)c2)CCC3(O)C1C5` (stereo not shown) [SMGP 2] the ED50 [1] was > 10 mg/kg.
For `C=CCN1CC[C@]23c4c5ccc(O)c4O[C@H]2[C@H](NC(=O)c2cccc(I)c2)CC[C@@]3(O)[C@H]1C5` [SMGP 3], the ED50 [1] was 0.57 mg/kg, the Ki [2, 5] was 0.08 nM and the Ki [3, 6] was 0.22 nM. The Ki [4, 7] was 2.55 nM.
In the case of `C=CCN1CC[C@]23c4c5ccc(O)c4O[C@H]2[C@@H](NC(=O)c2cccc(I)c2)CC[C@@]3(O)[C@H]1C5` [SMGP 4], the ED50 [1] is reported as 5 mg/kg, the Ki [2, 5] is reported as 12.2 nM and the Ki [3, 6] is reported as 5.07 nM. The Ki [4, 7] was 7.64 nM.
`O=C(NC1CCC2(O)C3Cc4ccc(O)c5c4C2(CCN3CC2CCC2)C1O5)c1cccc(I)c1` (stereo not shown) [SMGP 6] was tested, and the Ki [2] was 0.67 nM, the Ki [3] was 0.88 nM and the Ki [4] was 2.38 nM.
`C=CCN1CCC23c4c5ccc(OC)c4OC2C(NC(=O)c2cccc(I)c2)CCC3(O)C1C5` (stereo not shown) [SMGP 8] was tested, and the ED50 [1] was > 10 mg/kg, the Ki [2] was > 100 nM and the Ki [3] was > 100 nM. For the same compound, the Ki [4] was > 100 nM.
`C=CCN1CCC23c4c5ccc(O)c4OC2C(NC(=O)c2ccccc2I)CCC3(O)C1C5` (stereo not shown) [SMGP 16] was tested, and the ED50 [1] was > 10 mg/kg, the Ki [2] was 1 nM and the Ki [3] was 1.56 nM. The Ki [4] was 22.8 nM.
`C=CCN1CCC23c4c5ccc(O)c4OC2C(NC(=O)c2ccc(I)cc2)CCC3(O)C1C5` (stereo not shown) [SMGP 17] was tested, and the ED50 [1] was 0.16 mg/kg, the Ki [2] was 0.28 nM and the Ki [3] was 0.11 nM. It also gave a Ki [4] of 3.36 nM.
For `C=CCN1CCC23c4c5ccc(O)c4OC2C(NC(=O)c2cccc(F)c2)CCC3(O)C1C5` (stereo not shown) [SMGP 18], the ED50 [1] was 3.24 mg/kg, the Ki [2] was 2.05 nM and the Ki [3] was 0.47 nM. For the same compound, the Ki [4] was 18.2 nM.
Compound `C=CCN1CCC23c4c5ccc(O)c4OC2C(NC(=O)c2cccc(Cl)c2)CCC3(O)C1C5` (stereo not shown) [SMGP 19] has an ED50 [1] of 2.3 mg/kg, a Ki [2] of 0.52 nM and a Ki [3] of 1.15 nM. The Ki [4] was 4.87 nM.
Compound `C=CCN1CCC23c4c5ccc(O)c4OC2C(NC(=O)c2cccc(Br)c2)CCC3(O)C1C5` (stereo not shown) [SMGP 20] has an ED50 [1] of 1.36 mg/kg, a Ki [2] of 1.58 nM and a Ki [3] of 3.85 nM. The Ki [4] was 23.4 nM.
`C=CCN1CC[C@]23c4c5ccc(O)c4O[C@H]2[C@H](NC(=O)c2ccccc2)CC[C@@]3(O)[C@H]1C5` [SMGP 21] showed an ED50 [1] of 5 mg/kg, a Ki [2, 5] of 14.3 nM and a Ki [3, 6] of 4.03 nM. For the same compound, the Ki [4, 7] was 60.8 nM.
`C=CCN1CC[C@]23c4c5ccc(O)c4O[C@H]2[C@H](NC(=O)c2cccc(C)c2)CC[C@@]3(O)[C@H]1C5` [SMGP 22] was tested, and the ED50 [1] was 2 mg/kg, the Ki [2, 5] was 1.62 nM and the Ki [3, 6] was 0.29 nM. For the same compound, the Ki [4, 7] was 8.24 nM.
Work on `C=CCN1CC[C@]23c4c5ccc(O)c4O[C@H]2[C@H](NC(=O)c2cccc(C(F)(F)F)c2)CC[C@@]3(O)[C@H]1C5` [SMGP 23] yielded an ED50 [1] of 0.26 mg/kg, a Ki [2, 5] of 0.22 nM and a Ki [3, 6] of 0.85 nM. The Ki [4, 7] was 2.96 nM.
`C=CCN1CC[C@]23c4c5ccc(O)c4O[C@H]2[C@H](NC(=O)c2cccc(OC)c2)CC[C@@]3(O)[C@H]1C5` [SMGP 24] showed an ED50 [1] of 0.1 mg/kg, a Ki [2, 5] of 4.97 nM and a Ki [3, 6] of 0.18 nM. For the same compound, the Ki [4, 7] was 17.2 nM.
With `C=CCN1CC[C@]23c4c5ccc(O)c4O[C@H]2[C@H](NC(=O)c2cccc(N)c2)CC[C@@]3(O)[C@H]1C5` [SMGP 25] the ED50 [1] was > 10 mg/kg, the Ki [2, 5] was 0.4 nM and the Ki [3, 6] was 0.43 nM. The Ki [4, 7] was 36 nM.
In the case of `C=CCN1CC[C@]23c4c5ccc(O)c4O[C@H]2[C@H](NC(=O)c2cccc(N(C)C)c2)CC[C@@]3(O)[C@H]1C5` [SMGP 26], the ED50 [1] is reported as > 10 mg/kg, the Ki [2, 5] is reported as 34.9 nM and the Ki [3, 6] is reported as 6.39 nM. For the same compound, the Ki [4, 7] was 51.4 nM.
Compound `C=CCN1CC[C@]23c4c5ccc(O)c4O[C@H]2[C@H](NC(=O)c2cccc(O)c2)CC[C@@]3(O)[C@H]1C5` [SMGP 27] has an ED50 [1] of 10.3 mg/kg, a Ki [2, 5] of 2.75 nM and a Ki [3, 6] of 0.23 nM. It also gave a Ki [4, 7] of 11.2 nM.
